Test results published in ChEMBL document CHEMBL3612056, “Mechanism studies on anti-HepG2 cell proliferation of phenanthroline derivatives as G-quadruplex DNA stabilizers” (Bioorg Med Chem Lett, 2015).
Active and inactive are the calls of the source. No cut-off for these calls is given here.

Tests used:
[1] = Stabilization of c-myc promoter G-quadruplex DNA (unknown origin)
[2] = tested on: DNA; experiment: Stabilization of human telomere promoter G-quadruplex DNA (unknown origin); format: nucleic-acid assay
[3] = tested on: HepG2; experiment: Cytotoxicity against human HepG2 cells assessed as reduction in cell viability incubated for 72 hrs by MTT assay; format: functional, cell-based; settings: HepG2, 72 h
[4] = tested on: HeLa; experiment: Cytotoxicity against human HeLa cells assessed as reduction in cell viability incubated for 72 hrs by MTT assay; format: functional, cell-based
[5] = tested on: MCF7; experiment: Cytotoxicity against human MCF7 cells assessed as reduction in cell viability incubated for 72 hrs by MTT assay; format: functional, cell-based; settings: MCF7, 72 h
[6] = tested on: HepG2; experiment: Induction of cell cycle arrest in human HepG2 cells assessed as reduction in accumulation at S phase incubated for 2 days by propidium iodide staining based flow cytometry method; format: functional
[7] = tested on: HepG2; experiment: Induction of cell cycle arrest in human HepG2 cells assessed as reduction in accumulation at G2/M phase incubated for 2 days by propidium iodide staining based flow cytometry method; format: functional
[8] = tested on: HepG2; experiment: Induction of cell cycle arrest in human HepG2 cells assessed as increase in accumulation at G0/G1 phase incubated for 2 days by propidium iodide staining based flow cytometry method; format: functional
[9] = tested on: HepG2; experiment: Induction of cell cycle arrest in human HepG2 cells assessed as accumulation at G0/G1 phase at 4 uM incubated for 2 days by propidium iodide staining based flow cytometry method (reference value: 51.56%); format: functional
[10] = tested on: HepG2; experiment: Induction of cell cycle arrest in human HepG2 cells assessed as accumulation at S phase at 4 uM incubated for 2 days by propidium iodide staining based flow cytometry method (reference value: 27.05%); format: functional
[11] = tested on: HepG2; experiment: Induction of cell cycle arrest in human HepG2 cells assessed as accumulation at G2/M phase at 4 uM incubated for 2 days by propidium iodide staining based flow cytometry method (reference value: 21.39%); format: functional
[12] = tested on: HepG2; experiment: Induction of cell cycle arrest in human HepG2 cells assessed as accumulation at G0/G1 phase at 8 uM incubated for 2 days by propidium iodide staining based flow cytometry method (reference value: 51.56%); format: functional
[13] = tested on: HepG2; experiment: Induction of cell cycle arrest in human HepG2 cells assessed as accumulation at S phase at 8 uM incubated for 2 days by propidium iodide staining based flow cytometry method (reference value: 27.05%); format: functional
[14] = tested on: HepG2; experiment: Induction of cell cycle arrest in human HepG2 cells assessed as accumulation at G2/M phase at 8 uM incubated for 2 days by propidium iodide staining based flow cytometry method (reference value: 21.39%); format: functional
[15] = tested on: HepG2; experiment: Reduction in cyclin B1/CDK1 protein expression in human HepG2 cells incubated for 2 days by Western blot method; format: functional, cell-based
[16] = tested on: HepG2; experiment: Reduction in cyclin D1/CDK4 protein expression in human HepG2 cells incubated for 2 days by Western blot method; format: functional, cell-based
[17] = tested on: HepG2; experiment: Induction of apoptosis in human HepG2 cells by Annexin-V-FITC and propidium iodide staining based flow cytometry; format: functional, cell-based
[18] = tested on: HepG2; experiment: Induction of apoptosis in human HepG2 cells assessed as viable cells levels at 8 uM incubated for 2 days by Annexin-V-FITC and propidium iodide staining based flow cytometry (reference value: 97.9%); format: functional
[19] = tested on: HepG2; experiment: Induction of apoptosis in human HepG2 cells assessed as early apoptotic cells levels at 8 uM incubated for 2 days by Annexin-V-FITC and propidium iodide staining based flow cytometry (reference value: 0.3%); format: functional
[20] = tested on: HepG2; experiment: Induction of apoptosis in human HepG2 cells assessed as late apoptotic cells levels at 8 uM incubated for 2 days by Annexin-V-FITC and propidium iodide staining based flow cytometry (reference value: 0.5%); format: functional
[21] = tested on: HepG2; experiment: Induction of apoptosis in human HepG2 cells assessed as necrotic cells levels at 8 uM incubated for 2 days by Annexin-V-FITC and propidium iodide staining based flow cytometry (reference value: 1.4%); format: functional
[22] = tested on: HepG2; experiment: Induction of apoptosis in human HepG2 cells assessed as viable cells levels at 12 uM incubated for 2 days by Annexin-V-FITC and propidium iodide staining based flow cytometry (reference value: 97.9%); format: functional
[23] = tested on: HepG2; experiment: Induction of apoptosis in human HepG2 cells assessed as early apoptotic cells levels at 12 uM incubated for 2 days by Annexin-V-FITC and propidium iodide staining based flow cytometry (reference value: 0.3%); format: functional
[24] = tested on: HepG2; experiment: Induction of apoptosis in human HepG2 cells assessed as late apoptotic cells levels at 12 uM incubated for 2 days by Annexin-V-FITC and propidium iodide staining based flow cytometry (reference value: 0.5%); format: functional
[25] = tested on: HepG2; experiment: Induction of apoptosis in human HepG2 cells assessed as necrotic cells levels at 12 uM incubated for 2 days by Annexin-V-FITC and propidium iodide staining based flow cytometry (reference value: 1.4%); format: functional
[26] = tested on: HepG2; experiment: Induction of apoptosis in human HepG2 cells assessed as viable cells levels at 8 uM incubated for 3 days by Annexin-V-FITC and propidium iodide staining based flow cytometry (reference value: 89.3%); format: functional
[27] = tested on: HepG2; experiment: Induction of apoptosis in human HepG2 cells assessed as early apoptotic cells levels at 8 uM incubated for 3 days by Annexin-V-FITC and propidium iodide staining based flow cytometry (reference value: 2.9%); format: functional
[28] = tested on: HepG2; experiment: Induction of apoptosis in human HepG2 cells assessed as late apoptotic cells levels at 8 uM incubated for 3 days by Annexin-V-FITC and propidium iodide staining based flow cytometry (reference value: 3.9%); format: functional
[29] = tested on: HepG2; experiment: Induction of apoptosis in human HepG2 cells assessed as necrotic cells levels at 8 uM incubated for 3 days by Annexin-V-FITC and propidium iodide staining based flow cytometry (reference value: 3.8%); format: functional
[30] = tested on: HepG2; experiment: Induction of apoptosis in human HepG2 cells assessed as viable cells levels at 12 uM incubated for 3 days by Annexin-V-FITC and propidium iodide staining based flow cytometry (reference value: 89.3%); format: functional
[31] = tested on: HepG2; experiment: Induction of apoptosis in human HepG2 cells assessed as early apoptotic cells levels at 12 uM incubated for 3 days by Annexin-V-FITC and propidium iodide staining based flow cytometry (reference value: 2.9%); format: functional
[32] = tested on: HepG2; experiment: Induction of apoptosis in human HepG2 cells assessed as late apoptotic cells levels at 12 uM incubated for 3 days by Annexin-V-FITC and propidium iodide staining based flow cytometry (reference value: 3.9%); format: functional
[33] = tested on: HepG2; experiment: Induction of apoptosis in human HepG2 cells assessed as necrotic cells levels at 12 uM incubated for 3 days by Annexin-V-FITC and propidium iodide staining based flow cytometry (reference value: 3.8%); format: functional
[34] = tested on: HepG2; experiment: Reduction in c-Myc gene expression in human HepG2 cells at 2 to 16 uM incubated for 2 days by RT-PCR method; format: functional, cell-based
[35] = tested on: HepG2; experiment: Effect on TERT gene expression in human HepG2 cells at 2 to 16 uM incubated for 2 days by RT-PCR method; format: functional, cell-based
[36] = tested on: HepG2; experiment: Reduction in c-Myc protein expression in human HepG2 cells at 0.5 to 20 uM incubated for 2 days by Western blot method; format: functional, cell-based
[37] = tested on: HepG2; experiment: Reduction in TERT protein expression in human HepG2 cells at 0.5 to 20 uM incubated for 2 days by Western blot method; format: functional, cell-based
[38] = tested on: HepG2; experiment: Increase in p53 protein expression in human HepG2 cells at 8 and 12 uM incubated for 2 days by Western blot method; format: functional, cell-based
[39] = tested on: HepG2; experiment: Reduction in Sp1 protein expression in human HepG2 cells at 8 and 12 uM incubated for 2 days by Western blot method; format: functional, cell-based
[40] = tested on: HepG2; experiment: Inhibition of cell proliferation of human HepG2 cells at 0.5 uM incubated for 12 days by long-term cell growth inhibition assay; format: functional, cell-based
[41] = tested on: HepG2; experiment: Inhibition of telomeric DNA elongation in human HepG2 cells at 0.5 uM incubated for 17 days by telomere restriction fragment length assay; format: functional, cell-based
[42] = tested on: HepG2; experiment: Induction of cell cycle arrest in human HepG2 cells assessed as accumulation at G0/G1 phase at 4 uM incubated for 2 days by propidium iodide staining based flow cytometry method (reference value: 64.6%); format: functional
[43] = tested on: HepG2; experiment: Induction of cell cycle arrest in human HepG2 cells assessed as accumulation at S phase at 4 uM incubated for 2 days by propidium iodide staining based flow cytometry method (reference value: 24.65%); format: functional
[44] = tested on: HepG2; experiment: Induction of cell cycle arrest in human HepG2 cells assessed as accumulation at G2/M phase at 4 uM incubated for 2 days by propidium iodide staining based flow cytometry method (reference value: 10.75%); format: functional
[45] = tested on: HepG2; experiment: Induction of cell cycle arrest in human HepG2 cells assessed as accumulation at G0/G1 phase at 8 uM incubated for 2 days by propidium iodide staining based flow cytometry method (reference value: 64.6%); format: functional
[46] = tested on: HepG2; experiment: Induction of cell cycle arrest in human HepG2 cells assessed as accumulation at S phase at 8 uM incubated for 2 days by propidium iodide staining based flow cytometry method (reference value: 24.65%); format: functional
[47] = tested on: HepG2; experiment: Induction of cell cycle arrest in human HepG2 cells assessed as accumulation at G2/M phase at 8 uM incubated for 2 days by propidium iodide staining based flow cytometry method (reference value: 10.75%); format: functional
[48] = tested on: HepG2; experiment: Reduction in c-Myc protein expression in human HepG2 cells at 2 to 12 uM incubated for 2 days by Western blot method; format: functional, cell-based
[49] = tested on: HepG2; experiment: Reduction in TERT protein expression in human HepG2 cells at 2 to 12 uM incubated for 2 days by Western blot method; format: functional, cell-based

With `O=C(Nc1ccc(OCCN2CCCC2)cc1)c1ccc2ccc3ccc(C(=O)Nc4ccc(OCCN5CCCC5)cc4)nc3c2n1` the Activity [1] was “Active”, the Activity [2] was “Active” and the IC50 [3] was 500 nM. For the same compound, the IC50 [4] was 2100 nM, the IC50 [5] was 2000 nM and the Activity [6] was “Dose-dependent effect”. For the same compound, the Activity [7] was “Dose-dependent effect”, the Activity [8] was “Dose-dependent effect” and the Activity [9] was 55.76%. The Activity [10] was 25.69%, the Activity [11] was 18.55% and the Activity [12] was 64.97%. For the same compound, the Activity [13] was 19.9%, the Activity [14] was 15.13% and the inhibition [15] was “Dose-dependent effect”. The inhibition [16] was “Dose-dependent effect”, the Activity [17] was “Dose-dependent effect” and the Activity [18] was 78.4%. It also gave an Activity [19] of 10.8%, an Activity [20] of 5.4% and an Activity [21] of 5.3%. The Activity [22] was 65.1%, the Activity [23] was 19.4% and the Activity [24] was 9.5%. For the same compound, the Activity [25] was 6%, the Activity [26] was 28.2% and the Activity [27] was 46.6%. For the same compound, the Activity [28] was 20%, the Activity [29] was 5.2% and the Activity [30] was 14.4%. For the same compound, the Activity [31] was 73.9%, the Activity [32] was 10.7% and the Activity [33] was 1.1%. The inhibition [34] was “Active”, the Activity [35] was “inactive” and the inhibition [36] was “Active”. The inhibition [37] was “Active”, the Activity [38] was “Active” and the inhibition [39] was “Dose-dependent effect”. For the same compound, the inhibition [40] was “Active” and the inhibition [41] was “inactive”.
For `O=C(CCN1CCCC1)Nc1cccc(NC(=O)c2ccc3ccc4ccc(C(=O)Nc5cccc(NC(=O)CCN6CCCC6)n5)nc4c3n2)n1`, the Activity [1] was “Active”, the Activity [2] was “Active” and the IC50 [3] was 1260 nM. For the same compound, the IC50 [4] was 830 nM, the IC50 [5] was 1570 nM and the Activity [42] was 59.87%. It also gave an Activity [43] of 26.82%, an Activity [44] of 13.82% and an Activity [45] of 42.26%. For the same compound, the Activity [46] was 38.57%, the Activity [47] was 19.17% and the inhibition [15] was “Dose-dependent effect”. The inhibition [16] was “Dose-dependent effect”, the Activity [17] was “Dose-dependent effect” and the Activity [18] was 84.2%. It also gave an Activity [19] of 3.3%, an Activity [20] of 7.5% and an Activity [21] of 5%. The Activity [22] was 81.7%, the Activity [23] was 4.9% and the Activity [24] was 8.2%. The Activity [25] was 5.2%, the Activity [26] was 33.7% and the Activity [27] was 39.6%. The Activity [28] was 17.4%, the Activity [29] was 9.3% and the Activity [30] was 31.6%. The Activity [31] was 39.5%, the Activity [32] was 18.7% and the Activity [33] was 10.2%. The inhibition [34] was “Active”, the Activity [35] was “inactive” and the inhibition [48] was “Active”. For the same compound, the inhibition [49] was “Active”, the Activity [38] was “Active” and the inhibition [39] was “Dose-dependent effect”. The inhibition [40] was “Active” and the inhibition [41] was “inactive”.
